EC50 and IC50 data for six compounds are collected here from patent US10280163B2 (BeiGene, Ltd., priority 2015, dated 2019).

Where two headings read alike, the source gives them in different places.

The target in experiment [1] is T1, cellular IDO1 in HeLa cells (Homo sapiens, UniProt P14902).
T1 construct: endogenous in cells; host or cells: HeLa cells (American Type Tissue Culture Collection), induced with human recombinant IFN-γ
Description: HeLa cell-based IDO1 Kyn (kynurenine) production assay. The conditions noted are these: Table 2, 8-substituted imidazo[1,5-a]pyridines, IFN-γ 100 ng/mL, 48 hours. The gist of the method:
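IFN-γ-induced HeLa cells (100 ng/mL) in phenol red-free DMEM with 0.4 mM L-Trp, compounds added together with IFN-γ, 48 h at 37 °C. Supernatant Kyn read at 480 nm after TCA precipitation and 4-(dimethylamino)benzaldehyde reaction. IC50 from four-parameter logistic fit.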

The target of experiment [2] is T2, Recombinant TDO (Homo sapiens, UniProt P48775).
T2 construct: His tag (C); made in house; host or cells: E. coli
T2 sequence (P48775 whole entry): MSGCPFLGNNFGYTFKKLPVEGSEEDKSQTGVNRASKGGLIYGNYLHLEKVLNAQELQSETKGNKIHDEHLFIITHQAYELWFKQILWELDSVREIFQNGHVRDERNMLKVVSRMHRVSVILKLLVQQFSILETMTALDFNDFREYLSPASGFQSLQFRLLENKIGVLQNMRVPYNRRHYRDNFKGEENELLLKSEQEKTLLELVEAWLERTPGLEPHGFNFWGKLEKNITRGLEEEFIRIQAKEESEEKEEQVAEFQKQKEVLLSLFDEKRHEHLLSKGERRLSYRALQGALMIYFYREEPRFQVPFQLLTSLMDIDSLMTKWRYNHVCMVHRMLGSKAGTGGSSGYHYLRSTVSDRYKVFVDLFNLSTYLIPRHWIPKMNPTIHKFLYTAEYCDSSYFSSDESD
Kind of experiment: TDO enzymatic assay. In kind it is biochemical. How it is done: Recombinant TDO was overexpressed and purified from E. coli cells with a C-terminal His tag. TDO enzymatic assay was performed using the same methodology as IDO1 enzymatic assay except that 100 nM TDO and 0.5 mM L-tryptophan (Km concentration) were used in the TDO assay.

Experiment [3] addresses T3, Recombinant IDO1 (Homo sapiens, UniProt P14902).
T3 construct: His tag (N); made in house; host or cells: E. coli
Description: IDO1 enzymatic assay. The class given is biochemical. The essentials:
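N-terminally His-tagged enzyme from E. coli (50 nM) was incubated with compound, 1.3 mM D-tryptophan, 5 mM ascorbate, 6.25 μM methylene blue and 0.4 mg/mL catalase in 50 mM potassium phosphate pH 7.5, 0.1% BSA for 1.5 h at 24° C. N′-formylkynurenine formation was followed at 321 nm for 1 h; IC50 from rate slopes.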

[4] abbreviates: Table 2, 8-substituted imidazo[1,5-a]pyridines, 100 nM TDO, 0.5 mM L-tryptophan, read-out: Enzyme IC50 (nM) TDO.
The mark [5] stands for this setting: Table 2, 8-substituted imidazo[1,5-a]pyridines, 50 nM IDO1, 1.3 mM D-tryptophan, read-out: Enzyme IC50 (nM) IDO1.

T1 sequence (P14902 whole entry): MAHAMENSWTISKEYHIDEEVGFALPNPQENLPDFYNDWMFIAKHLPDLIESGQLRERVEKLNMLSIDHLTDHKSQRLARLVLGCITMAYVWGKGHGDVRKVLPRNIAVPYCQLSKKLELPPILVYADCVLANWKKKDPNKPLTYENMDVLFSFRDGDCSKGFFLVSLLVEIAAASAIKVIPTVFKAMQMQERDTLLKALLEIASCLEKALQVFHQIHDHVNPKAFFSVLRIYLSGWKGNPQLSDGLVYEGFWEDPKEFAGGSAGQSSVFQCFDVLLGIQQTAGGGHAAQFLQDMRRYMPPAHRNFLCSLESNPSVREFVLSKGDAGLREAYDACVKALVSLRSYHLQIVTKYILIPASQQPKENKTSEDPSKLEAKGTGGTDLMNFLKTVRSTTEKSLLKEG
T3 sequence (P14902 whole entry): as above

On to `OC(CC1CCCCC1)c1c(Cl)ccn2cncc12` (stereo not drawn) [Example B105, 1-(7-chloroimidazo[1,5-a]pyridin-8-yl)-2-cyclohexylethan-1-ol], for which the EC50 in experiment [1] came to 876 nM. The IC50 is 4900 nM in experiment [2] (selectivity examples, read-out: enzymatic IC50 value to TDO) and 33 nM in experiment [3] (selectivity examples, read-out: enzymatic IC50 value to IDO1).

The compound `CC(C)c1ccn2cncc2c1C(O)C1CCCCC1` (stereo not drawn) [Example B106, Cyclohexyl (7-isopropylimidazo[1,5-a]pyridin-8-yl)methanol] displayed an EC50 in experiment [1] of 457 nM. Moreover, the figures for the IC50 in experiment [2] (setting [4]) and in experiment [3] (setting [5]) were 1200 nM and 138 nM, respectively.

`OC(c1c(C2CC2)ccn2cncc12)C1CCCCC1` (stereo not drawn) [Example B107, Cyclohexyl (7-cyclopropylimidazo[1,5-a]pyridin-8-yl)methanol] yielded an EC50 in experiment [1] of 256 nM. Moreover, the results for the IC50 in experiment [2] (setting [4]) and in experiment [3] (setting [5]) were 850 nM and 48 nM, respectively.

As to `CC(C)c1ccn2cncc2c1C(O)CC1CCCCC1` (stereo not drawn) [Example B108, 2-Cyclohexyl-1-(7-isopropylimidazo[1,5-a]pyridin-8-yl)ethan-1-ol], the response in experiment [1] was half-maximal at 389 nM (EC50). The IC50 in experiment [2] (setting [4]) was determined as 560 nM; in experiment [3] (setting [5]), 59 nM.

Compound `OC(c1c(C2CC2)ccn2cncc12)C1CCCC1` (stereo not drawn) [Example B109] had an EC50 in experiment [1] of 940 nM. For the same compound, the IC50 in experiment [2] (setting [4]) turned out to be 4600 nM; in experiment [3] (setting [5]), 35 nM.

`OC(CC1CCCCC1)c1c(C2CC2)ccn2cncc12` (stereo not drawn) [Example B110] gave an EC50 in experiment [1] of 259 nM. Further, the values for the IC50 in experiment [2] (setting [4]) and in experiment [3] (setting [5]) were 1000 nM and 53 nM, respectively.
